Tests used:
Conditions in all cases: 48 h
[1] = system: P12-Ichikawa; assay: AUC of viability dose-response curve (% viability x log10 dose units); higher = less sensitive
How it was run: (§1)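 Over 48 h at 37°C, leukemia cells in 1536-well plates (500 or 1000 cells/well), adapted to each medium, received library compounds in DMSO at 11 threefold doses from 47 μM to 0.79 nM. CellTiter-Glo One luminescence, normalised per plate to DMSO and cell-free wells, was fitted by a four-parameter log-logistic function of log10 dose. The area under the curve was then integrated by trapezoidal rule, after scaling curves above full viability and removing those that failed quality control.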

[2] = system: SEM cells; assay: as above
How it was run: as §1

[3] = system: NOMO1; assay: as above
How it was run: as §1

[4] = system: SEM cells; assay: cell viability relative to DMSO control; higher = less cytotoxic
How it was run: (§2)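 Viability is a per-plate percentage relative to DMSO wells, with cell-free wells as background. CellTiter-Glo One luminescence was read after 48 h at 37°C on 1536-well plates (5 μl) of NOMO1 or SEM (500 cells/well) or P12-Ichikawa (1000 cells/well) leukemia cells. The cells had been adapted for at least four passages in each medium and pin-dosed with library compounds in DMSO from 47 μM to 0.79 nM in 11 threefold steps.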

[5] = system: P12-Ichikawa; assay: as above
How it was run: as §2

[6] = system: NOMO1; assay: as above
How it was run: as §2

CO[C@H]1O[C@@H]2O[C@@]3(C)CC[C@H]4[C@H](C)CC[C@@H]([C@H]1C)[C@@]24OO3
AUC of viability dose-response curve
Conditions | [1] | [2] | [3]
HPLM + 10% dialyzed FBS | 433 | 429 | 436
RPMI 5 mM glucose + 10% FBS | 430 | 456 | 433
RPMI 5 mM glucose + 10% dialyzed FBS | 417 | 451 | 405

Cc1ccc(C(N)=O)cc1Nc1nccc(-c2cn(C(C)C)c3cnccc23)n1
cell viability [%], [4]
Conditions | HPLM + 10% dialyzed FBS | RPMI 5 mM glucose + 10% dialyzed FBS
0.000781 µM | 99 | 109
0.00234 µM | 118 | 128
0.00702 µM | 113 | 124
0.0211 µM | 111 | 113
0.0632 µM | 100 | 113
0.19 µM | 88 | 87.3
0.569 µM | 75 | 64.1
1.71 µM | 80 | 71
5.12 µM | 61.4 | 52.5
15.4 µM | 29 | 34.8
46.1 µM | 16.7 | 12.7

AUC of viability dose-response curve
Conditions | HPLM + 10% dialyzed FBS | RPMI 5 mM glucose + 10% FBS | RPMI 5 mM glucose + 10% dialyzed FBS
[1] | 463 | 459 | 451
[2] | 356 | 342 | 326

c1cc(N[C@@H]2CCNC2)nc(-c2cnc3ccc(-c4cn[nH]c4)cn23)c1
cell viability [%]
Conditions | [4] | [5] | [6]
HPLM + 10% dialyzed FBS, 0.000781 µM | 105 | 116 | 133
HPLM + 10% dialyzed FBS, 0.00234 µM | 109 | 121 | 119
HPLM + 10% dialyzed FBS, 0.00702 µM | 136 | 122 | 124
HPLM + 10% dialyzed FBS, 0.0211 µM | 134 | 123 | 137
HPLM + 10% dialyzed FBS, 0.0632 µM | 106 | 131 | 134
HPLM + 10% dialyzed FBS, 0.19 µM | 98.6 | 130 | 139
HPLM + 10% dialyzed FBS, 0.569 µM | 81.5 | 135 | 127
HPLM + 10% dialyzed FBS, 1.71 µM | 78.8 | 136 | 128
HPLM + 10% dialyzed FBS, 5.12 µM | 74 | 132 | 132
HPLM + 10% dialyzed FBS, 15.4 µM | 76.5 | 120 | 102
HPLM + 10% dialyzed FBS, 46.1 µM | 67.2 | 104 | 91.9
RPMI 5 mM glucose + 10% FBS, 0.000781 µM | – | – | 116
RPMI 5 mM glucose + 10% FBS, 0.00234 µM | – | – | 126
RPMI 5 mM glucose + 10% FBS, 0.00702 µM | – | – | 124
RPMI 5 mM glucose + 10% FBS, 0.0211 µM | – | – | 133
RPMI 5 mM glucose + 10% FBS, 0.0632 µM | – | – | 137
RPMI 5 mM glucose + 10% FBS, 0.19 µM | – | – | 125
RPMI 5 mM glucose + 10% FBS, 0.569 µM | – | – | 120
RPMI 5 mM glucose + 10% FBS, 1.71 µM | – | – | 125
RPMI 5 mM glucose + 10% FBS, 5.12 µM | – | – | 128
RPMI 5 mM glucose + 10% FBS, 15.4 µM | – | – | 111
RPMI 5 mM glucose + 10% FBS, 46.1 µM | – | – | 100

AUC of viability dose-response curve
Conditions | [1] | [2] | [3]
HPLM + 10% dialyzed FBS | 471 | 386 | 460
RPMI 5 mM glucose + 10% FBS | 457 | 399 | 467
RPMI 5 mM glucose + 10% dialyzed FBS | 437 | 367 | 436

CC(C(=O)O)c1ccc(-c2ccccc2)c(F)c1 (configuration not stated)
AUC of viability dose-response curve
Conditions | [1] | [2] | [3]
HPLM + 10% dialyzed FBS | 424 | 442 | 464
RPMI 5 mM glucose + 10% FBS | 432 | 417 | 476
RPMI 5 mM glucose + 10% dialyzed FBS | 424 | 447 | 459

CC(C)C[C@H](NC(=O)c1cc2ccccc2s1)C(=O)N1CCN(C(=O)[C@H](CO)N[S+](=O)([O-])c2ccc(Cl)cc2Cl)CC1
AUC of viability dose-response curve
Conditions | [1] | [2] | [3]
HPLM + 10% dialyzed FBS | 462 | 451 | 461
RPMI 5 mM glucose + 10% FBS | 464 | 453 | 468
RPMI 5 mM glucose + 10% dialyzed FBS | 462 | 439 | 436

CC(C)C[C@@H](N)[C@H](O)C(=O)N[C@H](C(=O)N[C@H](C(=O)N[C@@H](CC(=O)O)C(=O)O)C(C)C)C(C)C
AUC of viability dose-response curve
Conditions | [1] | [2] | [3]
HPLM + 10% dialyzed FBS | 468 | 465 | 455
RPMI 5 mM glucose + 10% FBS | 433 | 446 | 462
RPMI 5 mM glucose + 10% dialyzed FBS | 450 | 477 | 463

COc1cc([C@@H]2c3cc4c(cc3[C@H](O)[C@H]3COC(=O)[C@H]23)OCO4)cc(OC)c1OC
cell viability [%]
Conditions | [4] | [5] | [6]
HPLM + 10% dialyzed FBS, 0.000781 µM | 78.4 | 87.8 | 82.2
HPLM + 10% dialyzed FBS, 0.00234 µM | 52.4 | 39.1 | 54.7
HPLM + 10% dialyzed FBS, 0.00702 µM | 20 | 12.4 | 43.6
HPLM + 10% dialyzed FBS, 0.0211 µM | 21.5 | 7.37 | 37.9
HPLM + 10% dialyzed FBS, 0.0632 µM | 12.9 | 7 | 24.6
HPLM + 10% dialyzed FBS, 0.19 µM | 14.8 | 8.5 | 30.1
HPLM + 10% dialyzed FBS, 0.569 µM | 11.1 | 7.63 | 33.9
HPLM + 10% dialyzed FBS, 1.71 µM | 10.8 | 8.21 | 38.5
HPLM + 10% dialyzed FBS, 5.12 µM | 7.23 | 6.81 | 29.4
HPLM + 10% dialyzed FBS, 15.4 µM | 6.55 | 5.69 | 30.6
HPLM + 10% dialyzed FBS, 46.1 µM | 3.29 | 2.44 | 5.9
RPMI 5 mM glucose + 10% FBS, 0.000781 µM | 102 | 84.9 | 76.2
RPMI 5 mM glucose + 10% FBS, 0.00234 µM | 38.7 | 45.4 | 92.9
RPMI 5 mM glucose + 10% FBS, 0.00702 µM | 14.9 | 15.6 | 17.5
RPMI 5 mM glucose + 10% FBS, 0.0211 µM | 18.2 | 9.29 | 21.1
RPMI 5 mM glucose + 10% FBS, 0.0632 µM | 8.76 | 7.32 | 12.1
RPMI 5 mM glucose + 10% FBS, 0.19 µM | 10.5 | 7.35 | 19.2
RPMI 5 mM glucose + 10% FBS, 0.569 µM | 7.96 | 6.22 | 17.5
RPMI 5 mM glucose + 10% FBS, 1.71 µM | 7.03 | 5.7 | 18.5
RPMI 5 mM glucose + 10% FBS, 5.12 µM | 4.97 | 5.67 | 16.4
RPMI 5 mM glucose + 10% FBS, 15.4 µM | 4.12 | 4.24 | 18.5
RPMI 5 mM glucose + 10% FBS, 46.1 µM | 3.41 | 1.48 | 5.06
RPMI 5 mM glucose + 10% dialyzed FBS, 0.000781 µM | 79.2 | 84 | 78.5
RPMI 5 mM glucose + 10% dialyzed FBS, 0.00234 µM | 52.7 | 41.4 | 89.8
RPMI 5 mM glucose + 10% dialyzed FBS, 0.00702 µM | 16.7 | 19.7 | 26.2
RPMI 5 mM glucose + 10% dialyzed FBS, 0.0211 µM | 20.1 | 11.7 | 23.7
RPMI 5 mM glucose + 10% dialyzed FBS, 0.0632 µM | 7.53 | 6.34 | 16.9
RPMI 5 mM glucose + 10% dialyzed FBS, 0.19 µM | 9.95 | 8.83 | 24.8
RPMI 5 mM glucose + 10% dialyzed FBS, 0.569 µM | 7.34 | 7.96 | 20.2
RPMI 5 mM glucose + 10% dialyzed FBS, 1.71 µM | 6.19 | 7.78 | 18.2
RPMI 5 mM glucose + 10% dialyzed FBS, 5.12 µM | 4.79 | 7.21 | 17.9
RPMI 5 mM glucose + 10% dialyzed FBS, 15.4 µM | 3.29 | 5.34 | 18.9
RPMI 5 mM glucose + 10% dialyzed FBS, 46.1 µM | 3.02 | 2.45 | 6.11

AUC of viability dose-response curve
Conditions | HPLM + 10% dialyzed FBS | RPMI 5 mM glucose + 10% FBS | RPMI 5 mM glucose + 10% dialyzed FBS
[1] | 69.5 | 70.5 | 75.2
[3] | 170 | 126 | 138

Source: the supplement of paper PMC11451515
